# In EP4545547B1, “INSECT NEUROPEPTIDES” (Solasta Bio Limited, priority 2023, dated 2025):
# Where a SMILES comes first, the peptide text is derived from it.
# Columns and labels:
# Plutella xylostella [1] = test: Leaf dip assay 2 (based on IRAC susceptibility test method 019); format: in vivo; conditions: unformulated peptide at 1x10^-4 M; leaf disc on 1% agar; after 96 hours; Figure 6
# Description: The assay was carried out based on IRAC susceptibility test method 019 (https://irac-online.org/methods/aphids-adultnymphs/). Fill a small 4 cm wide 3 cm high dish with a 1% agar treatment solution of the active chemical or control (ensuring 1 cm gap between the agar and the lid) and leave to set. Dip a 2.5 cm leaf disc into 3 ml of treatment solution allowing the treatment to coat the leaf. Leave the disc to dry for 1 hour and place onto the set agar. Place insects (Plutella xylostella) onto each of the leaf discs. Each unit is sealed with a close-fitting, ventilated lid. Place the agar dishes in a small plastic tray lined with moist tissue paper and ensure the water trays in the bottom of the incubator are filled with clean water and place within the incubator. An assessment of mortality is made at 72, 96 and 120 hours. Leaf dip assays were performed with SB-P-81, and compared to a negative control vehicle and a current commercial insecticide Chlorantraniliprole. The activity of SB-P-81 is shown in Figure 6; SB-P-81 has good activity whilst being eco-friendly and targeted to specific pests unlike broad spectrum chemical insecticides such as Chlorantraniliprole.
# Plutella xylostella [2] = test: Leaf dip assay 1 (based on IRAC susceptibility test method 018, performed by FERA); format: in vivo; conditions: unformulated peptide at 2x10^-4 M; Chinese cabbage leaf discs dipped 10 seconds; larvae (2nd/3rd instar); mortality assessed after 120 hours; Figure 4
# Description: The assay was carried out based on IRAC susceptibility test method 018 by a contract research organization, FERA Science Ltd. Test insects Larvae (2nd/3rd instar) were sourced from a laboratory culture of P. xylostella. The culture has been maintained in a controlled environment (CE) room with conditions of 25 °C and 16:8 lighting regime on Chinese cabbage plants. Chinese cabbage leaves were used in the bioassays. A CE room set at 25 °C and 60% r.h. with a 16 hour light: 8 hours dark lighting regime, was used. Leaf discs (approximately 35mm in diameter) were cut from fully expanded Chinese cabbage leaves. Each leaf disc was dipped in a separate peptide solution for 10 seconds with gentle agitation and placed on a damp filter paper (underside surface uppermost). There were ten replicates for each treatment and control, with five leaf discs per replicate. The treated discs were then put onto damp filter paper in the base of a Petri dishes (90 mm in diameter, 15 mm high) (underside surface uppermost). Five larvae were then transferred onto the treated leaf discs. The dishes were placed in the CE room and mortality was assessed after 120 hours. Leaf dip assays were performed with SB-P-81, and compared to a negative control vehicle and a current commercial insecticide Gazelle SG (shown as the active Acetamiprid). […]
smiles,measurement,setting,value
"CSCC[C@H](NC(=O)[C@H](CO)NC(=O)CNC(=O)CN)C(=O)N[C@H](C(=O)N[C@@H](Cc1ccccc1)C(=O)N[C@@H](CO)C(=O)N1CCC[C@H]1C(=O)N[C@@H](CCCNC(=N)N)C(=O)N[C@@H](CC(C)C)C(N)=O)[C@@H](C)O [SB-P-81, [Hy]-GGSMTFSPRL-[NH2]] (H-GGSMTFSPRL-NH2)",activity against Plutella xylostella (mortality),Plutella xylostella [1],good activity
same,activity against Plutella xylostella (mortality),Plutella xylostella [2],good activity
